Experimental data published in patent publication US6590140B1, “Metal-regulated transporters and uses therefor” (Trustees of Dartmouth College, priority 1996, dated 2003).
Read-outs that look alike come from different tables or passages of the source.

Key:
[1] = biological target: T1, low affinity zinc uptake system (Zrt2p) (Saccharomyces cerevisiae, UniProt Q12436); format: cell-based; settings: for effect on zinc uptake by the low affinity system / uptake rate of radioactive zinc, % of the control rate: 200 μM added metal, zrt1 mutant cells; for inhibition of pMC4- and pOE2-dependent zinc uptake activity: ZRT2 overexpressing zrt1 cells; for zinc accumulation: 30° C., 10 μM 65Zn
T1 construct: endogenous in cells; host or cells: S. cerevisiae ZHY1 (zrt1::LEU2) and zinc-replete DY1457; some values come from ZHY1 carrying pMC4 (multicopy genomic ZRT2) or pOE2 (ZRT2 ORF under GAL1)
Experimental: (§1) Zinc uptake assays were performed as described previously for iron uptake (Eide et al. J. Biol. Chem. 267:20774-20781) except that ^65ZnCl2 (Amersham Corp., Arlington Heights, Ill.) and LZM-EDTA were substituted for ^59FeCl3 and LIM-EDTA. Cells were incubated at 30° C. with ^65Zn for five minutes, filtered, and washed with 10 ml ice-cold SSW. Cell-associated radioactivity was measured by liquid scintillation. Kinetic values were derived using KinetAsyst software (IntelliKinetics, Princeton, N.J.). Zinc accumulation was measured in cells grown in LZM medium supplemented with […] ^65Zn plus nonradioactive zinc to the indicated final concentration. Aliquots (0.5 ml) were filtered, washed with 10 ml ice-cold SSW, and counted by liquid scintillation. b-galactosidase activity was assayed as described by Guarente (Guarante, L. (1983) Methods Enzymol101:181-191).
(§2) Zinc uptake assays were performed as described previously for iron uptake (Eide et al. (1992) J. Biol. Chem. 267:20774-20781) except that ^65ZnCl2 (Amersham) and LZM-EDTA were substituted for ^59FeCI3 and LIM-EDTA, respectively. Cells were incubated for 5 minutes in LZM-EDTA plus the indicated concentration of ^65Zn, collected on glass fiber filters (Schleicher and Schuell), washed with 10 ml ice-cold SSW (1 mM EDTA, 20 mM trisodium citrate, 1 mM KH2PO4, 1 mM CaCl2, 5 mM MgSO4, 1 mM NaCl pH 4.2), and cell-associated radioactivity was measured by liquid scintillation counting. Cells were starved for glucose by incubating them in LZM-EDTA prepared without glucose for one hour at 30° C. prior to assay. Michaelis-Menten kinetic values were determined using […] software (Intellikinetics, Princeton, N.J.). Stock solutions of the chloride salts of Co, Cu, Mg, Mn, and Ni were prepared in distilled water at a concentration of 100 mM. The nonradioactive ZnCl2 stock was prepared at 100 mM in 0.02 N HCl and the FeCl3 stock was prepared at 50 mM in 0.1 N HCl. The statistical significance of the differences of values relative to controls was determined with one-way analysis of variance (ANOVA) followed by a Dunnett multiple comparison test. β-galactosidase activity was assayed in cells harvested at an OD600 of 0.5-2.0 as described by Guarente (Guarente, L. (1983) Methods Enzymol. 101:181-191) and activity is expressed as the change in absorbance at 420 nm×1000 divided by (min×ml of culture used×OD600 of the culture). Cell-associated zinc was measured in parallel cultures supplemented with tracer amounts of ^65Zn (10 μM) and nonradioactive zinc to the indicated final concentration. Aliquots (0.5 ml) were filtered, washed with 10 ml ice-cold SSW, and radioactivity measured by liquid scintillation.
(§3) To determine if ZRT1 plays a role in zinc uptake, the biochemical properties of this process in wild type cells were first characterized. […] Wild type (FIG. 10, DY1457, squares) and zrt1 mutant (FIG. 10, ZHY1, circles) cells were grown to exponential phase in zinc-limited (open symbols, FIG. 10) and zinc-replete (FIG. 10, closed symbols) media and assayed for zinc uptake rate over a range ZnSO4 concentrations. Zinc-limited media was LZM+10 μM zinc for the wild type and LZM+500 μM zinc for the mutant. Zinc-replete conditions were LZM+1000 μM for both strains. ZHY1(pOE1) cells (FIG. 10, triangles) were grown in zinc-replete SDgal medium.
(§4) Mutant zrt1 (ZHY1) cells were grown in LZM supplemented with 1 mM ZnCl2. Cells were incubated with 10 μM ^65Zn for the indicated times at either […]

[2] = biological target: T2, high affinity zinc uptake system (Zrt1p) (Saccharomyces cerevisiae, UniProt P32804); experiment: 65Zn uptake assay in yeast, high affinity zinc uptake system; format: cell-based; settings: for effect on zinc uptake by the high affinity system: 20 μM added metal, zinc-limited wild type
T2 construct: endogenous in cells; host or cells: S. cerevisiae DY1457 (wild type, zinc-limited) and ZHY2 (zrt2); one kinetic value comes from ZHY1 carrying pOE1 (ZRT1 ORF under the GAL1 promoter)
Experimental: as §1, §2, §3, §4

[3] = zrt1 cells grown in SD glucose supplemented with 2 mM ZnCl2

T1 sequence (Q12436 whole entry): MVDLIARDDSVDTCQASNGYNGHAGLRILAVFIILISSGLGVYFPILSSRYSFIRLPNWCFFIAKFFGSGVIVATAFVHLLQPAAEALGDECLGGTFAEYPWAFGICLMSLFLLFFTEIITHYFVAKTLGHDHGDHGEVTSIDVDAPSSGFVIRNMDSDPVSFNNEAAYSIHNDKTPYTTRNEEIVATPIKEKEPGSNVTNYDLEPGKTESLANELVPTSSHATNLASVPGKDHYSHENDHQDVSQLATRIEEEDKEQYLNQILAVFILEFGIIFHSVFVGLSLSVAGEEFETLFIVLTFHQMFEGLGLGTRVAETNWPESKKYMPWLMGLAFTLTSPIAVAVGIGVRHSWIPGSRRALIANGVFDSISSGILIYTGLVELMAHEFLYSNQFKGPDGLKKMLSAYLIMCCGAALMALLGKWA
T2 sequence (P32804 whole entry): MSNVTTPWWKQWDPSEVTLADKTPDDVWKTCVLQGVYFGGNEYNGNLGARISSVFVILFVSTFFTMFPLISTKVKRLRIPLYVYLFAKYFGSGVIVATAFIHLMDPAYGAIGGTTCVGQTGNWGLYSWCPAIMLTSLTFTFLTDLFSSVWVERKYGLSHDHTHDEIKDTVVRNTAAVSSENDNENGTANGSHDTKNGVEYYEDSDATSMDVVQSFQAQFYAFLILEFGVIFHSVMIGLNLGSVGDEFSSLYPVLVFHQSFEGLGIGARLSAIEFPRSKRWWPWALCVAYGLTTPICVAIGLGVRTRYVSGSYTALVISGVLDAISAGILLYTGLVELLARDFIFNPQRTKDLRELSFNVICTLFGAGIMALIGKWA

With `[Cl-].[Cl-].[Co+2]` [Co] the “effect on zinc uptake by the low affinity system” value ([1]; 20 μM 65Zn, five minutes) was “did not diminish zinc uptake” and the “effect on zinc uptake by the high affinity system” value ([2]; 2 μM 65Zn, five minutes) was “unaffected”.
`[Cl][Cu][Cl]` [Cu] was tested, and the “uptake rate of radioactive zinc, % of the control rate” value (“uptake rate … % of the control rate” below) ([1]; 20 μM 65Zn, five minutes) was 32%, the “inhibition of pMC4- and pOE2-dependent zinc uptake activity” value [1] was “inhibited” and the “effect on zinc uptake by the high affinity system” value ([2]; 2 μM 65Zn, five minutes) was “inhibitory”.
In the case of `[Fe+2]` [Fe(II)], the “uptake rate … % of the control rate” value ([1]; 20 μM 65Zn, five minutes) is reported as 79%, the “inhibition of pMC4- and pOE2-dependent zinc uptake activity” value [1] is reported as “inhibited” and the “effect on zinc uptake by the high affinity system” value ([2]; 2 μM 65Zn, five minutes) is reported as “inhibitory”.
`[Cl][Fe]([Cl])[Cl]` [Fe(III)] was tested, and the “effect on zinc uptake by the low affinity system” value ([1]; 20 μM 65Zn, five minutes) was “did not diminish zinc uptake” and the “effect on zinc uptake by the high affinity system” value ([2]; 2 μM 65Zn, five minutes) was “unaffected”.
For `[Cl][Mn][Cl]` [Mn], the “effect on zinc uptake by the low affinity system” value ([1]; 20 μM 65Zn, five minutes) was “did not diminish zinc uptake” and the “effect on zinc uptake by the high affinity system” value ([2]; 2 μM 65Zn, five minutes) was “unaffected”.
`[Cl][Ni][Cl]` [Ni] was tested, and the “effect on zinc uptake by the low affinity system” value ([1]; 20 μM 65Zn, five minutes) was “did not diminish zinc uptake” and the “effect on zinc uptake by the high affinity system” value ([2]; 2 μM 65Zn, five minutes) was “unaffected”.
For `[Zn+2]` [zinc], the “control rate of zinc uptake” value ([1]; 20 μM 65Zn, five minutes, zrt1 (ZHY1) grown in LZM + 1 mM ZnCl2, no other metal) was 0.9 pmol/min/10^6 cells, the “uptake rate … % of the control rate” value ([1]; 20 μM 65Zn, five minutes) was “approximately 10%” and the “rate of zinc uptake of pMC4 transformants relative to vector control” value ([1]; ZHY1 (zrt1) with pMC4 vs YEp24, SD glucose, all 65Zn concentrations tested) was “approximately 15 fold”. For the same molecule, the Vmax ([1]; ZHY1 (zrt1) with plasmid pMC4, SD glucose, mean ± SE) was 28 ± 1 pmol/min/10^6, the Km ([1]; ZHY1 (zrt1) with plasmid pMC4, SD glucose, total zinc, mean ± SE, read-out: Km) was 8 ± 0.4 µM and the Vmax ([1]; ZHY1 (zrt1) with plasmid pOE2 (GAL1-ZRT2), SD galactose, mean ± SE) was 17 ± 2 pmol/min/10^6. For the same molecule, the Km ([1]; ZHY1 (zrt1) with plasmid pOE2 (GAL1-ZRT2), SD galactose, total zinc, mean ± SE, read-out: Km) was 3.6 ± 0.1 µM, the Vmax ([1]; ZHY1 (zrt1) with vector (YEp24, control for pMC4), SD glucose, mean ± SE) was 2.2 ± 0.1 pmol/min/10^6 and the Km ([1]; ZHY1 (zrt1) with vector (YEp24, control for pMC4), SD glucose, total zinc, mean ± SE, read-out: Km) was 9.5 ± 0.8 µM. It also gave a Vmax ([1]; ZHY1 (zrt1) with vector (pRS316-GAL1, control for pOE2), SD galactose, mean ± SE) of 2.0 ± 0.1 pmol/min/10^6, a Km ([1]; ZHY1 (zrt1) with vector (pRS316-GAL1, control for pOE2), SD galactose, total zinc, mean ± SE, read-out: Km) of 10 ± 1 µM and a Km ([1]; calculated free zinc, read-out: apparent Km of the low affinity system, free zinc) of roughly 0.1 µM. For the same molecule, the zinc accumulation ([1]; glucose-starved zrt1 cells, five minutes) was “no detectable zinc accumulation”, the Km ([1]; total zinc, read-out: apparent Km of the low affinity system) was 10 µM and the Vmax ([1]; wild type, high growth medium [Zn] (LZM + 1.5 mM ZnCl2), mean ± SE) was 0.60 ± 0.03 pmol/min/10^6. The Km ([1]; wild type, high growth medium [Zn] (LZM + 1.5 mM ZnCl2), total zinc, mean ± SE, read-out: Km) was 15 ± 3 µM, the Km ([1]; wild type, zinc-replete cells (LZM+1000 μM), read-out: apparent Km of zinc uptake) was 10 ± 1 µM and the “Vmax of zinc uptake” value ([1]; zinc-replete cells) was 2 pmol/min/10^6 cells. It also gave a Vmax ([1]; zrt1, high growth medium [Zn], mean ± SE) of 0.52 ± 0.04 pmol/min/10^6, a Km ([1]; zrt1, high growth medium [Zn], total zinc, mean ± SE, read-out: Km) of 10 ± 1 µM and a zinc uptake rate [1, 3] of 0.12 pmol/min/106 cells. The “zinc uptake rate relative to untreated cells” value [1, 3] was 7%, the zinc uptake rate ([1]; zrt1 cells grown in zinc-replete SD glucose, assayed at 10, M 65Zn) was 1.7 pmol/min/10^6 cells and the zinc accumulation ([1]; zrt1 cells incubated with glucose, five minutes) was 3.7 pmol/10^6 cells. The “Vmax of zinc uptake” value ([1]; zrt1 mutant cells grown in zinc-limiting and zinc-replete media) was 1-2 pmol/min/10^6 cells, the Km ([1]; zrt1 mutant cells grown in zinc-limiting and zinc-replete media, read-out: apparent Km of zinc uptake) was 10 ± 1 µM and the “control rate of zinc uptake” value ([2]; 2 μM 65Zn, five minutes, wild type grown in LZM + 10 μM ZnCl2, no other metal) was 47 pmol/min/10^6 cells. For the same molecule, the “effect on zinc uptake by the high affinity system” value ([2]; 2 μM 65Zn, five minutes) was “inhibitory”, the “Vmax of zinc uptake” value ([2]; ZHY1(pOE1), ZRT1 expressed from GAL1 promoter, zinc-replete cells, galactose) was 30 pmol/min/10^6 cells and the Km ([2]; ZHY1(pOE1), ZRT1 expressed from GAL1 promoter, zinc-replete cells, galactose, read-out: apparent Km of zinc uptake) was 0.6 ± 0.1 µM. For the same molecule, the Km ([2]; calculated free zinc, read-out: apparent Km of the high affinity system, calculated free zinc concentration) was roughly 0.01 µM, the Km ([2]; total zinc, read-out: apparent Km of the high affinity system, total zinc) was 1 µM and the “Vmax of zinc uptake” value ([2]; wild type DY1457, zinc-limited cells (LZM+10 μM zinc)) was 80 pmol/min/10^6 cells. The Km ([2]; wild type DY1457, zinc-limited cells (LZM+10 μM zinc), read-out: apparent Km of zinc uptake) was 1 ± 0.1 µM, the Vmax ([2]; wild type, low growth medium [Zn] (LZM + 10 μM ZnCl2), mean ± SE) was 76 ± 2 pmol/min/10^6 and the Km ([2]; wild type, low growth medium [Zn] (LZM + 10 μM ZnCl2), total zinc, mean ± SE, read-out: Km) was 0.52 ± 0.07 µM. The Vmax ([2]; zrt2, high growth medium [Zn] (LZM + 1.5 mM ZnCl2), mean ± SE) was 0.31 ± 0.01 pmol/min/10^6, the Km ([2]; zrt2, high growth medium [Zn] (LZM + 1.5 mM ZnCl2), total zinc, mean ± SE, read-out: Km) was 0.4 ± 0.04 µM and the Vmax ([2]; zrt2, low growth medium [Zn], mean ± SE) was 60 ± 2 pmol/min/10^6. For the same molecule, the Km ([2]; zrt2, low growth medium [Zn], total zinc, mean ± SE, read-out: Km) was 0.85 ± 0.18 µM.
